Reference: patent US20140179681A1, “METHODS AND COMPOSITIONS OF TARGETED DRUG DEVELOPMENT” (priority 2010, published 2014)
Structures can show the parent of a compound that is named as a salt. Where two headings read alike, the source gives them in different places.

How the values were obtained:
EGFR = molecular target: T1, EGFR (Homo sapiens, UniProt P00533); assay: EGFR in-cell Western (ICW) screening protocol (EGFR inhibition assay); format: cell-based; design: ICW 1 / ICW 2 / ICW Avg: unit not given here; settings: for ICW Avg / ICW 1 / ICW 2: ICW assay; for ICW Avg: average of runs 1 and 2; for ICW 1: run 1; for ICW 2: run 2; for ICW assay: Table 10, % Inhibition of EGF dependent EGFR phosphorylation in A431 cells, compound 125 μM in assay
T1 construct: host or cells: A431
Description: The following example describes general EGFR in-cell Western (ICW) screening protocol. Methods are according to Chen et al. (2005) Analytical Biochemistry 338, 136-142 (incorporated herein by reference), except as otherwise noted.
Cell Plates: A431 cells (ATCC # CRL-1555) were grown in Dulbecco's Modified Eagle Medium (DMEM; ATCC #30-2002) supplemented with 10% fetal bovine serum, 105 units/ml pen/strep (Invitrogen #15140155) and 2.1 mM L-glutamine (ATCC #30-2214). Cells were seeded into 96 well tissue culture plates (BD Falcon #353948) at a density of 30,000 cells per well and incubated at 37° C. with 5% CO2 overnight. Two cell plates were prepared for each compound plate.
Serum Starvation: The cells were serum starved prior to compound addition. The media was removed by aspiration and the cells washed with PBS (200 μl/well; Invitrogen #20012-027). The PBS was removed by aspiration and replaced with 200 μl of DMEM (ATCC #30-2002) supplemented with 105 units/ml pen/strep (Invitrogen #15140155) and 2.1 mM 1-glutamine (ATCC #30-2214). The cell plates were incubated at 37° C./5% CO2 for 2 hours.
Compound Plate Preparation: The test compounds were solvated in 100% DMSO (Sigma #472301-2L) at a concentration of 25 mM. Compounds found not to be completely soluble in 100% DMSO at 25 mM were diluted to 10 mM with 100% DMSO and TFA (Fluka #91699) added to a final concentration of 0.2%. 40 μl of test compound was added to the appropriate well of a 96 well plate (Falcon #351190). As controls, 6 μM EGFR kinase inhibitor PD168393 (EMD/Calbiochem #513033) in 100% DMSO and DMSO alone were added to various wells. Prepared compound plates were stored at RT prior to use and at 4° C. long term.
Compound Dilution Plate Preparation: 250 μl of DMEM supplemented with 1 mg/ml BSA (Sigma A3059-10G) was added to the appropriate wells of a 96 well plate to prepare the compound dilution plates. Using a multichannel pipettor, 1.25 μl of compound from the compound plate was transferred into the compound dilution plate.
Compound Addition: The starve media was removed from the cell plates by aspiration. Using a multichannel pipettor, the compound dilution plates were mixed by pipetting up and down three times. 50 μl of mixed, diluted compound was added to each of two rows/columns on each of two cell plates. The cell plates with compound were incubated at 37° C./5% CO2 for 4 hours.
EGF Addition: 20 ng/ml EGF (Upstate #01-107) was prepared in DMEM supplemented with 1 mg/ml BSA. 50 μl of 20 or 0 ng/ml EGF was added to the appropriate wells without the removal of compound. The compound and EGF were mixed by pipetting up and down three times. The plates were incubated at 37° C./5% CO2 for 10 min. In some screening assays the final concentration of EGF used for simulation was 6.6, or 12.5 ng/ml rather than 10 ng/ml.
Fixation and Triton Washing: The EGF+compound was removed by aspiration and 150 μl of freshly prepared Fixation Solution (1×PBS, Sigma P3813-10PK, and 4% Formaldehyde, Pierce #28908) was immediately added. The plates were incubated at RT for 20 min without shaking. The Fixation Solution was removed by aspiration and the plates washed four times with 200 μl each of Triton Wash Solution (1×PBS, Sigma P3813-10PK, and 0.1% Triton X-100, T8787-50ML) for 5 min with gentle shaking.
Blocking and Probing: Following the last Triton Wash, the plates were blocked for 1.5 h at RT with shaking using 150 μl of Odyssey Blocking Buffer (LI-COR #927-40000). The block was removed by aspiration and 50 μl of diluted primary Ab mix was added. The plates were incubated at 4° C. overnight with gentle shaking. The plates were washed five times with 200 μl of PBST (1×PBS, Sigma P3813-10PK, and 0.1% Tween-20, Sigma P9416-50ML) for 5 min each with shaking 50 μl of diluted secondary Ab mix was added and the plates incubated at RT for 1 h with shaking. The plates were washed 5× with 200 μl of PBST for 5 min each with shaking. […]

[1] = system: epithelial carcinoma A431 cell line; assay: MTT Cell Proliferation Assay, A431 cells; format: cell-based; settings: for MTT Assay IC50(A431/MDBK): ratio in parentheses: ratio MDBK IC50 / A431 IC50 (selectivity); for MTT Assay IC50(A431/MDBK): A431: A431 cells; for MTT assay, % at 2.6 microMolar: cell line not stated
Text: (§1) The following example describes the MTT Cell Proliferation Assay.
(§2) The MTT Cell Proliferation Assay is a colorimetric assay system that measures the reduction of the tetrazolium salt MTT (3-(4,5-dimethylthiazol-2-yl)-2,5-diphenyltetrazolium bromide) into insoluble formazan crystals, produced by the mitochondria of viable cells. […] The color can then be quantified by spectrophotometric means. Among the applications for the method are drug sensitivity, cytotoxicity, response to growth factors, and cell activation. The reduction of tetrazolium salts is now recognized as a safe, accurate alternative to radiometric testing.
(§3) Two replicates on each cell plate and 2 duplicate plates gave 4 individual replicates of each concentration, in each cell line. Concentrations were diluted in 100% DMSO from 25 mM stocks.
(§4) Twelve 96 well plates of each cell line were plated. Plating was done by dislodging cells as in passage protocol, counting on a hemocytometer, re-suspending in standard growth media, and plating using a multichannel pippetor.
(§5) 16 μl of 25 mM stock+34 μl DMSO=8 mM starting concentrations, and serial diluted as with test compounds in same plate. […] Two replicates of each concentrations was run on each cell plate. All compound addition and cell treatments were done using aseptic technique under a laminar flow aseptic hood.
(§6) Control: 0.5% DMSO in treatment media was used as the control.
(§7) MTT dye (Thiazolyl Blue Tetrazolium Bromide, Sigma cat #M5655) stock was prepared in bulk and stored at 4° C. for use: 5 mgs/ml sterile PDS, shielded from light. 4 ul of this stock per 100 uls treatment media per well was used.
(§8) Plates were incubated overnight prior to treatment, with treatment day=Day 0. Compound treatments were prepared prior to washing cells to minimize time cells were dry at room temperature after final aspiration. Compounds were diluted in 100% DMSO in 96 well polypropylene plates: 40 μl 25 mM stock+10 μl DMSO=20 mM; 20 μl of 20 mM+30 μl DMSO=8 mM; 20 μl of 8 mM+30 μl DMSO=3.2 mM; 20 μl of 3.2 mM+30 μl DMSO=1.3 mM; 20 μl of 1.3 mM+30 μl DMSO=0.51 mM.
(§9) 5.0 μl/ml were added to treatment media, in sterile, 2.2 ml deep well plates=0.5% dmso final. Ten μl of each dmso concentration was added to 2.0 ml of treatment media and then mixed using a 1200 μl multichannel pipettor. Cell plates were treated from the deep well plates. Treatment media was standard growth media containing 0.5% FBS and standard additions. This reduced FBS concentration allowed for a slower growth rate in cells.
(§10) Media was aspirated from cell plates, and washed with 200 μl/well sterile PBS. Aspirated PBS wash, and cell plates were treated with 200 μl of compound/treatment media per well, and incubated at 37° C., 5% CO2 for 3 days.
(§11) Prior to harvesting, visual observations were made under an inverted microscope. Plates were harvested by: aspirating the growth media; adding back MTT dye/100 μl treatment media; and incubating plates at 37° C. for 1 hour. MTT dye was aspirated. 100 μl/well dmso was added, and then shaken on a Bellco plate shaker for 5 minutes, at 4.5 setting.
(§12) Plates were read in a Tecan Sunrize UV plate reader, at 560 nm. Settings: Read mode, Outside Normal 2 sec; Shake settle time 3 sec. Data is reported as % inhibition, calculated for individual plates using control values from that plate.

MDBK line = assay: MTT Cell Proliferation Assay, MDBK cells; format: cell-based, bovine; settings: Bos taurus, MDBK, MDBK cells, second value of cell; read-out: MTT Assay IC50(A431/MDBK): MDBK
Text: as §1, §2, §3, §4, §5, §6, §7, §8, §9, §10, §11, §12

[2] = Homo sapiens, A-431, A431 cells, first value of cell, read-out: MTT Assay IC50(A431/MDBK): A431
[3] = first value of 'a/b (c)', taken as A431 cells

T1 sequence (P00533 25-1210): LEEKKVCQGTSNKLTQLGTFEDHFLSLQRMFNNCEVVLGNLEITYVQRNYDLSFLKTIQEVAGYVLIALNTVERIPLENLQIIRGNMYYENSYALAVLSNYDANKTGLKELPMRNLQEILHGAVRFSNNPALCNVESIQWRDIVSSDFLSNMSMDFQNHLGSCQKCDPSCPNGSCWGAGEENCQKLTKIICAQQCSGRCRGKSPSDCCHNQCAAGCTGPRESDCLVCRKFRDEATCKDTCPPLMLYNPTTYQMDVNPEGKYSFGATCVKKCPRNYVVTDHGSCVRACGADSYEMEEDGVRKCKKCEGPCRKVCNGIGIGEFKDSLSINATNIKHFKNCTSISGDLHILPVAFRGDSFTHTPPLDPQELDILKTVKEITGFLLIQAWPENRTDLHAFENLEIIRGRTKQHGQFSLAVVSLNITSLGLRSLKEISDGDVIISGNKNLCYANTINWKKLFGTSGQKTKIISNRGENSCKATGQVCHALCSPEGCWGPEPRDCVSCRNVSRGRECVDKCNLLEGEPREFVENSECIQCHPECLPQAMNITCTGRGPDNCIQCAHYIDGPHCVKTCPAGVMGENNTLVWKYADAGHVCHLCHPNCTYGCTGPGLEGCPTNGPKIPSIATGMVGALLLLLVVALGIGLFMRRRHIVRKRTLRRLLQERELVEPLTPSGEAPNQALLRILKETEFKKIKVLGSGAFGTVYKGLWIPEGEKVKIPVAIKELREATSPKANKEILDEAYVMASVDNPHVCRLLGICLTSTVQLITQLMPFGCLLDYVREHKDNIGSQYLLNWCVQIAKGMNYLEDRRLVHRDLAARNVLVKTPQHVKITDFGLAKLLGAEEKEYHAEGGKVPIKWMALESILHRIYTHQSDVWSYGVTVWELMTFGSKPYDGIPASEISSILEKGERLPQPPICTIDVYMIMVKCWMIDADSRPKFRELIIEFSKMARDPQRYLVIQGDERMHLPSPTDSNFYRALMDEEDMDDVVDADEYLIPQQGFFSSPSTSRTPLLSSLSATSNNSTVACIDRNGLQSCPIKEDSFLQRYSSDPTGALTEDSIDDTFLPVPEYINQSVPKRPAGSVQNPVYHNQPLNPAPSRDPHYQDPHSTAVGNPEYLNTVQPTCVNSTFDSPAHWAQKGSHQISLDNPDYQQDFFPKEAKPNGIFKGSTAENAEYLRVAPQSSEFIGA

Row | Compound | ICW Avg (EGFR) | ICW 1 (EGFR) | ICW 2 (EGFR) | MTT Assay IC50(A431/MDBK): A431 ([1]; first value of cell) | ICW Screen (ICW Inhibition) (EGFR) | further results
1 | Cc1ccc2c(C)nc(Nc3nc(-c4ccccc4)cc(=O)[nH]3)nc2c1 [10381 + TFA] | 82.76 | 87.04 | 78.48 | – | – | IC50 [1, 2]: 2.1 µM; MTT Assay IC50(A431/MDBK): ratio in parentheses [1]: 1.43; IC50 (MDBK line): 3.01 µM
2 | CCc1ccc2nc(Nc3nc(=O)cc(CSc4nc5ccccc5s4)[nH]3)nc(C)c2c1 [11300 + TFA] | 25.61 | 25.11 | 26.12 | – | – | IC50 [1, 2]: 26.3 µM; MTT Assay IC50(A431/MDBK): ratio in parentheses [1]: 0.30; IC50 (MDBK line): 7.95 µM
3 | COc1ccc(C2CC(=O)c3cnc(Nc4nc(-c5ccccc5)c5ccccc5n4)nc3C2)cc1 (centres unmarked) [11663 + TFA] | 26.73 | 31.73 | 21.73 | non-convergent | – | –
4 | Cc1ccc(C2CC(=O)c3cnc(Nc4nc(C)c5cccc(C)c5n4)nc3C2)cc1 (centres unmarked) [11673 + TFA] | 25.35 | 33.30 | 17.39 | non-convergent | – | –
5 | Cc1ccc2c(C)nc(Nc3nc(C)cc(=O)[nH]3)nc2c1 [11725 + TFA] | 28.93 | 26.65 | 31.20 | – | – | IC50 [1, 2]: 13 µM
6 | Cc1cc(C)c2nc(Nc3nc(CSc4ccc(Cl)cc4)cc(=O)[nH]3)nc(C)c2c1 [11726 + TFA] | 30.87 | 35.72 | 26.02 | NOT ACTIVE | – | –
7 | CCOc1cccc2c(C)nc(Nc3nc(C)c(Cc4ccc(C)cc4)c(=O)[nH]3)nc12 [11753 + TFA] | 44.86 | 42.44 | 47.28 | NOT ACTIVE | – | –
8 | CC(C)C(=O)NC(=S)Nc1ccc(S(=O)(=O)N2CCCC2)cc1 [AD4-11970] | – | – | – | – | 43.246 | MTT Screen, first value of cell [1, 3]: non- conver- gent
9 | CC(C)C(=O)NC(=S)Nc1ccc(S(=O)(=O)N(C)c2ccccc2)cc1 [AD4-12042] | – | – | – | – | 34.592 | MTT Screen, first value of cell [1, 3]: non- conver- gent
10 | COC(=O)CCC(=O)NC(=S)Nc1ccc(S(=O)(=O)Nc2cc(C)cc(C)c2)cc1 [AD4-12093] | – | – | – | – | 29.436 | MTT Screen, first value of cell [1, 3]: non- conver- gent
11 | CN(c1ccccc1)S(=O)(=O)c1ccc(NC(=S)NC(=O)C2CC2)cc1 [AD4-12164] | – | – | – | – | 45.64 | IC50 ([1]; Homo sapiens, A-431, first value of 'a/b (c)', taken as A431 cells, read-out: MTT Screen, first value of cell): 50.6 µM; IC50 ([1]; first value of 'a/b (c)', taken as A431 cells, read-out: MTT Screen, first value of cell): 51.4 µM
12 | O=S(=O)(c1ccc(NC(=S)Nc2cccc(C(F)(F)F)c2)cc1)N1CCc2ccccc21 [AD4-12239] | – | – | – | – | – | ICW assay (EGFR): 67.8291; MTT assay, % at 2.6 microMolar ([1]; Table 10): 58%
13 | CCCC(=O)NC(=S)Nc1ccc(S(=O)(=O)Nc2cc(C)on2)cc1 [AD4-12267] | – | – | – | – | 30.36 | MTT Screen, first value of cell [1, 3]: non- conver- gent
14 | CN(c1ccccc1)S(=O)(=O)c1ccc(NC(=S)NC(=O)/C=C/c2cccs2)cc1 [AD4-12288] | – | – | – | – | 35.584 | MTT Screen, first value of cell [1, 3]: non- conver- gent
15 | Cc1ccc(C)c(NC(=S)Nc2ccc(S(=O)(=O)N3c4ccc(F)cc4CCC3C)cc2)c1 (centres unmarked) [AD4-12824] | – | – | – | – | – | ICW assay (EGFR): 25.9501; MTT assay (first value) ([1]; Table 10, first of x/y(ratio): A431, three day treatment, unit not printed (doses in μM)): Not Active
16 | CC1CCc2cc(F)ccc2N1S(=O)(=O)c1ccc(NC(=S)Nc2cc(Cl)cc(Cl)c2)cc1 (centres unmarked) [AD4-12843] | – | – | – | – | – | ICW assay (EGFR): 43.3347; MTT assay, % at 2.6 microMolar ([1]; Table 10): 74%
17 | CC1CCc2cc(F)ccc2N1S(=O)(=O)c1ccc(NC(=S)Nc2cccc(C(F)(F)F)c2)cc1 (centres unmarked) [AD4-12846] | – | – | – | – | – | ICW assay (EGFR): 71.4924; MTT assay, % at 2.6 microMolar ([1]; Table 10): 71%

Further lines, with some results ahead:

Row | ICW Avg (EGFR) | ICW 1 (EGFR) | ICW 2 (EGFR) | MTT Assay IC50(A431/MDBK): A431 ([1]; first value of cell) | ICW Screen (ICW Inhibition) (EGFR) | Compound | further results
18 | 72.20 | 70.26 | 74.15 | NOT ACTIVE | – | Cc1cc(C)c2nc(NC3=NC(c4ccccc4)CC(=O)N3)nc(C)c2c1 (centres unmarked) [AD4-12641 + TFA] | –
19 | 73.45 | 82.35 | 64.55 | NOT ACTIVE | – | CCCc1cc(=O)[nH]c(Nc2nc(C)c3ccc(OC)cc3n2)n1 [AD4-12652 + TFA] | –
20 | 62.29 | 53.35 | 71.23 | non-convergent | – | CCOc1cccc2c(C)nc(Nc3nc(-c4ccccc4)cc(=O)[nH]3)nc12 [compound 11492] | –
